Drawing on ChEMBL document CHEMBL4806968, “Hipk inhibitors and methods of use thereof” (2020), this text covers inhibition and Activity for nine compounds.

For test [1], the target named is Protein-tyrosine kinase 6 (Homo sapiens) (UniProt Q13882). In words: Inhibition of BRK (unknown origin) at 0.5 uM relative to control.
Test [2] deals with Macrophage colony-stimulating factor 1 receptor (Homo sapiens) (UniProt P07333). In words: Inhibition of FMS (unknown origin) at 0.5 uM relative to control.
Test [3] deals with Mast/stem cell growth factor receptor Kit (Homo sapiens) (UniProt P10721). As to the kind of experiment: Inhibition of KIT (unknown origin) at 0.5 uM relative to control.
Chain of Mast/stem cell growth factor receptor Kit (Homo sapiens) (P10721 whole entry): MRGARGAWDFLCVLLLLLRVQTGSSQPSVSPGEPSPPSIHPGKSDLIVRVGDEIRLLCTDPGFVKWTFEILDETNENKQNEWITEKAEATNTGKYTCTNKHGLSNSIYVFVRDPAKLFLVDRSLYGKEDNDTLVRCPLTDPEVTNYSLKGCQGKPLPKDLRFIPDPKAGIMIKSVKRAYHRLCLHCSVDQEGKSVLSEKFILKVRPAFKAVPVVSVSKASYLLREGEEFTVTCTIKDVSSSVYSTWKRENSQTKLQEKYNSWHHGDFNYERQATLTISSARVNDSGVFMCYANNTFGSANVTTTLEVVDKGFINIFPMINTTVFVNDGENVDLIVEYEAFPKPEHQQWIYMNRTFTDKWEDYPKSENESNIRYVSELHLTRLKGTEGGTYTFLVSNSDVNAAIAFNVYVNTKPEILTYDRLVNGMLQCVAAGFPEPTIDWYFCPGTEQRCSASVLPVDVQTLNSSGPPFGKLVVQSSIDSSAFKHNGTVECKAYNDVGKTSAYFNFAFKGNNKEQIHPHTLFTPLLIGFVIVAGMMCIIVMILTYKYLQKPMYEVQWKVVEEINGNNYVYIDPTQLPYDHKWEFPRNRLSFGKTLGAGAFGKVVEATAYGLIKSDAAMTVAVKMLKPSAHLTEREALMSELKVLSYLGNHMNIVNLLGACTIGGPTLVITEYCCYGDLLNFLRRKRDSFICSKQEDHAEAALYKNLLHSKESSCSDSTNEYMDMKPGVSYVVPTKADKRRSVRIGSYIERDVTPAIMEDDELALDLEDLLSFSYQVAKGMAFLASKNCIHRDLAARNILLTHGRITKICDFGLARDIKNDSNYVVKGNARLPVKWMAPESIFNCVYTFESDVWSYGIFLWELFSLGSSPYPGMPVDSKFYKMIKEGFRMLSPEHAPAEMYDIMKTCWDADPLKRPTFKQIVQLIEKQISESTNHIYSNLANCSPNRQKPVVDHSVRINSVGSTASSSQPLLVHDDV
Test [4] addresses Tyrosine-protein kinase Lck (Homo sapiens) (UniProt P06239). As to the kind of experiment: Inhibition of LCK (unknown origin) at 0.5 uM relative to control.
Test [5] concerns the target T1, Tyrosine-protein kinase receptor TYRO3 (Homo sapiens) (UniProt Q06418).
T1 sequence (whole entry): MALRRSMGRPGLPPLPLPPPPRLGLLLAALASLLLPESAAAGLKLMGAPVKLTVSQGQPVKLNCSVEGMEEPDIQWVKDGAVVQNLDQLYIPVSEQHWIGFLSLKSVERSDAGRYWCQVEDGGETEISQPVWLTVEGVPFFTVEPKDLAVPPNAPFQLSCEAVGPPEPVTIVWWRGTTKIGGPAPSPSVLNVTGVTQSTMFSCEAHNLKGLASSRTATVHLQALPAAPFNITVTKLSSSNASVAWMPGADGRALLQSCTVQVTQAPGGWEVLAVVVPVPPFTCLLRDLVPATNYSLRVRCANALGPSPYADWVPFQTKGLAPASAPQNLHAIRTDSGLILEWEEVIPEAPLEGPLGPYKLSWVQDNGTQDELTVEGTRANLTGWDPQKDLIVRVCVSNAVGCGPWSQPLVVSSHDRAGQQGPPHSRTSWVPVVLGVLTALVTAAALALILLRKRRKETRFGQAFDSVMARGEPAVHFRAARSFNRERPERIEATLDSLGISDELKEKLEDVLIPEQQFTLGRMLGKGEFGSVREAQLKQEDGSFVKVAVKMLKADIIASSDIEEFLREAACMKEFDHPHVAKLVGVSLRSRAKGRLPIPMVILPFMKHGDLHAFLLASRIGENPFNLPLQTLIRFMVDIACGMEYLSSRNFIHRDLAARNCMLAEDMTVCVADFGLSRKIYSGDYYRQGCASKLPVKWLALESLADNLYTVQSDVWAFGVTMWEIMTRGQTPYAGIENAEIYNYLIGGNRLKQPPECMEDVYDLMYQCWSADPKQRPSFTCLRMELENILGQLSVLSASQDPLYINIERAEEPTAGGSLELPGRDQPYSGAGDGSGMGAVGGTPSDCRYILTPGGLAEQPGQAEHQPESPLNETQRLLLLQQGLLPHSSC
As to the kind of experiment: Inhibition of TYRO3 (unknown origin) at 0.5 uM relative to control.

For test [6], the target named is T2, Ephrin type-B receptor 4 (Homo sapiens) (UniProt P54760).
T2 sequence (whole entry): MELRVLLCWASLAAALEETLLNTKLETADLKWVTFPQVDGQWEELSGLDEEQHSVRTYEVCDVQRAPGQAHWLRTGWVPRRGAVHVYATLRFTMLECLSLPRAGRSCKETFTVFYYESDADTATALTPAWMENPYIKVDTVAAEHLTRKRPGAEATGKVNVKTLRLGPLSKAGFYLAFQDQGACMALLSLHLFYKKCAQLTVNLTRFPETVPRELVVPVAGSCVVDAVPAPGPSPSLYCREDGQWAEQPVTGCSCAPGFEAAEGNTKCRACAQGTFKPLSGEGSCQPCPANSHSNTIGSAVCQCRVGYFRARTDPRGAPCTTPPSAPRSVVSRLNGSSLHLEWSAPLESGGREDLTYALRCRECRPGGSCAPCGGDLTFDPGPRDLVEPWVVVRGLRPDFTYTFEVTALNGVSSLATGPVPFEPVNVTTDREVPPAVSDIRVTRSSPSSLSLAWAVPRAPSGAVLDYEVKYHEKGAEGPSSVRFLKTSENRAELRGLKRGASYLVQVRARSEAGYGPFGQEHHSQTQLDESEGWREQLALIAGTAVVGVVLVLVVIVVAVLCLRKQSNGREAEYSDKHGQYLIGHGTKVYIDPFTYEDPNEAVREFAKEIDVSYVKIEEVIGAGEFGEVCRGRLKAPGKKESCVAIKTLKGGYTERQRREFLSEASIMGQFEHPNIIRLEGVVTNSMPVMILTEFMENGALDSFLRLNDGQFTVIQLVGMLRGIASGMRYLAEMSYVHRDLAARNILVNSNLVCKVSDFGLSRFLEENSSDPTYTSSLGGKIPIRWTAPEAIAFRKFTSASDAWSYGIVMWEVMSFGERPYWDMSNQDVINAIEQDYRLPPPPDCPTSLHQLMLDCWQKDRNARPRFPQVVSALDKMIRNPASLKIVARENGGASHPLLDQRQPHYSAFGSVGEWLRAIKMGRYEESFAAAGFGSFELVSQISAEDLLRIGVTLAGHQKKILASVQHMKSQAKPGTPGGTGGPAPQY
In words: Inhibition of EPHB4 (unknown origin) at 0.5 uM relative to control.

The target in test [7] is Homeodomain-interacting protein kinase 1 (Homo sapiens) (UniProt Q86Z02). In words: Inhibition of HIPK1 (unknown origin) assessed as effect on HIPK1 protein level by Western blotting analysis.
Chain of Homeodomain-interacting protein kinase 1 (Homo sapiens) (Q86Z02 whole entry, looked up): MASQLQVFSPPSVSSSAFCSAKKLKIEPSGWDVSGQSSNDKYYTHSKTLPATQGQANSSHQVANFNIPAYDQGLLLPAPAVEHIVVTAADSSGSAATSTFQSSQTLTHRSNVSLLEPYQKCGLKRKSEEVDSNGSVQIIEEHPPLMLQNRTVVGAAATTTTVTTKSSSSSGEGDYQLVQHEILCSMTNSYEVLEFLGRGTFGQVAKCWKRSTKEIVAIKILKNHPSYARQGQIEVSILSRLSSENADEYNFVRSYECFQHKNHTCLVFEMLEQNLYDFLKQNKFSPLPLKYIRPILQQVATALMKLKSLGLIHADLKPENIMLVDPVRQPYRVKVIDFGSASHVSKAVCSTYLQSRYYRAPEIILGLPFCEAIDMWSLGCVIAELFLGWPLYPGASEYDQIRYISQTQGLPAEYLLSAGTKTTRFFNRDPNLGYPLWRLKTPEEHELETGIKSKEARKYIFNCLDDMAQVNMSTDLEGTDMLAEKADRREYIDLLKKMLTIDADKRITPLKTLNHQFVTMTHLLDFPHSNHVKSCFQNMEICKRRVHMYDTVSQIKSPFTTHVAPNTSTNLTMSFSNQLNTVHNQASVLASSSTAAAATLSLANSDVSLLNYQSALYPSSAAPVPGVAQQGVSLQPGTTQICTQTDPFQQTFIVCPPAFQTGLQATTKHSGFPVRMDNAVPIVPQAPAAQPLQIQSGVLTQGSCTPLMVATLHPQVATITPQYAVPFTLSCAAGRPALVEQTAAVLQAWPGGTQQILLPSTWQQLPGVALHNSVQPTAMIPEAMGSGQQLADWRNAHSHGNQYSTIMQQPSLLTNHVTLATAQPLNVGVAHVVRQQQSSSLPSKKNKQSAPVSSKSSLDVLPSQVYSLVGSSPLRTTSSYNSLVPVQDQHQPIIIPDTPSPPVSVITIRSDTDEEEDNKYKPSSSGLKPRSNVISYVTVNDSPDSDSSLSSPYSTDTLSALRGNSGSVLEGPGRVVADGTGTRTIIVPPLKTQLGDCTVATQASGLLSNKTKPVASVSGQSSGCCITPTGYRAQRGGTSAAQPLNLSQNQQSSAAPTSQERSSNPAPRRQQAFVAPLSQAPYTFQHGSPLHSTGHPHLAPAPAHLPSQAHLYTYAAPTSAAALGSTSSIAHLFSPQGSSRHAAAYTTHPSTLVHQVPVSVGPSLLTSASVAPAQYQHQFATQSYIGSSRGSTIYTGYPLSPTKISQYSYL
The target of test [8] is Homeodomain-interacting protein kinase 3 (Homo sapiens) (UniProt Q9H422). In words: Inhibition of HIPK3 (unknown origin) assessed as effect on HIPK3 protein level by Western blotting analysis.
Chain of Homeodomain-interacting protein kinase 3 (Homo sapiens) (Q9H422 whole entry, looked up): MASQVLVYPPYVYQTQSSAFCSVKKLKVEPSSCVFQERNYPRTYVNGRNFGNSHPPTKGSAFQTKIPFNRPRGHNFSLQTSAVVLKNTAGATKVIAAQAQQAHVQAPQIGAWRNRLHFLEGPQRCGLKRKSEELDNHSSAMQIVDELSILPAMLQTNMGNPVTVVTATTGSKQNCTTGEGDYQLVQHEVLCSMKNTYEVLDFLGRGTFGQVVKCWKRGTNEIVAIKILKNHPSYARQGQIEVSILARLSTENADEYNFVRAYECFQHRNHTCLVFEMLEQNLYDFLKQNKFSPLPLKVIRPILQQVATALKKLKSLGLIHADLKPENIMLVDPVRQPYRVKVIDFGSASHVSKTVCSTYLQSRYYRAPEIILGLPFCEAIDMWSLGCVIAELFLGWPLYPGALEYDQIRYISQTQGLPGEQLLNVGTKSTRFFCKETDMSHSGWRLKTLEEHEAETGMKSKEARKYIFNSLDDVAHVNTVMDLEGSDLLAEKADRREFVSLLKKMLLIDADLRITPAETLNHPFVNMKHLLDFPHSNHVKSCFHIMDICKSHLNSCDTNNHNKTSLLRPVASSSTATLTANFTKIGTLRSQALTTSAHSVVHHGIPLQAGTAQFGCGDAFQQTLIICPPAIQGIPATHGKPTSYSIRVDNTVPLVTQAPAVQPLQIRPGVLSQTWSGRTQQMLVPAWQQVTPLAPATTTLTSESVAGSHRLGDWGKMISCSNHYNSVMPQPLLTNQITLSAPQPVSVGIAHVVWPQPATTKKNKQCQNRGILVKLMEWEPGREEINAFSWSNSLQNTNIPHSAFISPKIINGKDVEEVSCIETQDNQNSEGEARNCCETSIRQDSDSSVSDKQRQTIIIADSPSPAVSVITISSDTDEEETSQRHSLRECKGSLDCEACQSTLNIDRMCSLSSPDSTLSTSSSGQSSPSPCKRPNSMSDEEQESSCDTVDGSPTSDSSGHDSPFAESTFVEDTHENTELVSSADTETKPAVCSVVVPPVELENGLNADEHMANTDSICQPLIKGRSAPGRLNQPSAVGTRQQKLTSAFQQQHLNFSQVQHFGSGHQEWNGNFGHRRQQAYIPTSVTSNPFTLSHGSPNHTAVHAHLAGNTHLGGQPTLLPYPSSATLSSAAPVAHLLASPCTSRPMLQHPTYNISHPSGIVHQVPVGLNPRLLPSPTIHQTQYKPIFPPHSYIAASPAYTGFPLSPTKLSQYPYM
Test [9] addresses Ephrin type-A receptor 7 (Homo sapiens) (UniProt Q15375). In words: Inhibition of EPHA7 (unknown origin) at 0.5 uM relative to control.

Active and inactive are the calls of the source. The calls are words filed in the database; no cut-off is given here.

Chain of Tyrosine-protein kinase Lck (Homo sapiens) (P06239 2-509 limits assumed): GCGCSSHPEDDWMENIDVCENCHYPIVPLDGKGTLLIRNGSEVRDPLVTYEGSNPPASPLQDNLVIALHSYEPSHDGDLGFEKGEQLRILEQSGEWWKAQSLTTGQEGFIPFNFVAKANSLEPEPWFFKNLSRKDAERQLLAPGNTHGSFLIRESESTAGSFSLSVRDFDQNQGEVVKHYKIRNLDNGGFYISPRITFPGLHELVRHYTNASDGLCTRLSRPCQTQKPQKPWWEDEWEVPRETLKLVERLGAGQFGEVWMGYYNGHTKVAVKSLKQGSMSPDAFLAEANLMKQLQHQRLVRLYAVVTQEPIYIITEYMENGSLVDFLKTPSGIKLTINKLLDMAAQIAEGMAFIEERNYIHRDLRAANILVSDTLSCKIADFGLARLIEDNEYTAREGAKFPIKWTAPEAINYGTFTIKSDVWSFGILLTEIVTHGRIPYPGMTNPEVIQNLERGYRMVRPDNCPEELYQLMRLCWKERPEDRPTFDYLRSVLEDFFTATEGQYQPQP
Chain of Protein-tyrosine kinase 6 (Homo sapiens) (Q13882 whole entry, looked up): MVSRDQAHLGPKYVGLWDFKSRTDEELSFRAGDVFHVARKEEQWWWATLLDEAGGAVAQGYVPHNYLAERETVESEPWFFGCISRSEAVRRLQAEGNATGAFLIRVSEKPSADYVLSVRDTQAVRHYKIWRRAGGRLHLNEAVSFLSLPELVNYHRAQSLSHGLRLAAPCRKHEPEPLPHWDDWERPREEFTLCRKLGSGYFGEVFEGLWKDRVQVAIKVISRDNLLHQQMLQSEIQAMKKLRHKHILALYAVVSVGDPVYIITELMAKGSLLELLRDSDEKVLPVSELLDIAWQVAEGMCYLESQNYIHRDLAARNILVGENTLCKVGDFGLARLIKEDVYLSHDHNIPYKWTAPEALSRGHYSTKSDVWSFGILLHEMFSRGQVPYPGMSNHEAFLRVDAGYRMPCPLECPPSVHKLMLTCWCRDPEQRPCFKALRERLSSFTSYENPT

Consider `CNC(=O)c1cc(Oc2ccc(NC(=O)c3n[nH]nc3-c3ccc(F)cc3)cc2)ccn1`, for which the inhibition in test [1] is 32%; in [2] it was 47%; in test [3] it was 65%.
For `CNC(=O)c1cc(Oc2ccc(NC(=O)c3nc(SC)n(CCN(C)C)c3-c3ccc(F)cc3)cc2)ccn1`, the inhibition in [1] was found to be 44%; in [2], 65%; in test [4], 28%; in [5] it was 52%; in [6], 25%; in [3], 27%.
Consider `CNC(=O)c1cc(Oc2ccc(NC(=O)c3nc(SC)oc3-c3ccc(F)cc3)cc2)ccn1`, for which the inhibition was found to be 80% in test [1]; 77% in [4]; 82% in test [5]; 42% in test [6]; 41% in test [9]; 40% in [3]. Further, the outcome in test [7] and in test [8] was inactive.
Turning to `CNC(=O)c1cc(Oc2ccc(NC(=O)c3nc(SC)oc3-c3ccc(F)cc3)cc2F)ccn1`, the inhibition worked out at 77% in [1]; 71% in test [4]; 70% in test [5]; 43% in test [6]; 53% in test [9].
As to `CNC(=O)c1cc(Oc2ccc(NC(=O)c3nc(S(C)(=O)=O)sc3-c3ccc(F)cc3)cc2)ccn1`, the inhibition in test [1] amounted to 34%; in test [2], 39%; in test [5], 70%; in test [6], 24%; in test [3] it was 25%. The result in [7] and in [8] was inactive.
In turn, `CSc1nc(C(=O)Nc2ccc(Oc3cc4cnn(C)c4cc3Br)cc2)c(-c2ccc(F)cc2)o1` showed an inhibition in test [9] of 22%.
For `CNC(=O)c1cc(Oc2ccc(NC(=O)c3nc(NC)sc3-c3ccc(F)cc3)cc2)ccn1`, the inhibition turned out to be 53% in test [1]; 49% in test [4]; 59% in test [5]; 60% in [9]; 47% in test [3].
Take `CNC(=O)c1cc(Oc2ccc(NC(=O)c3nc(C(F)(F)F)sc3-c3ccc(F)cc3)cc2)ccn1`: the inhibition in test [1] amounted to 87%; in test [2], 43%; in [4], 58%; in test [5], 65%; in test [6], 24%; in test [3], 33%.
As to `CNC(=O)c1cc(Oc2ccc(NC(=O)c3nc(SC)[nH]c3-c3ccc(F)cc3)cc2)ccn1`, the inhibition in [1] worked out at 90%; in test [4] it was 84%; in [5], 87%; in [6] it was 82%. Besides, the result in test [7] and in test [8] was inactive.
